From patent publication US9365830B2, “Agents and methods for inhibiting human pluripotent stem cell growth” (VIACYTE, INC., priority 2010, dated 2016)
Entries after “also recorded” stand apart in the source; their conditions may differ. Read-outs that look alike come from different tables or passages of the source.

Legend:
Format in all cases: cell-based, human
NPCs = assay: Secondary screen, lowest effective dose on NPCs; conditions: lowest concentration that elicited cytotoxicity, range 0.1 to 50 μM, read-out: ED NPC (lowest effective dose)
Protocol: In addition, the complete LOPAC1280™ collection was also screened for effects on neural progenitor cells (NPCs) that were derived from the hESCs. Neural progenitors were plated in serum-free MedII conditioned medium at 6×10^4 cells/well and fed daily. Two days after plating, 10 μM of each compound was added and the cells were cultured for an additional 2 days. […] Reduced crystal violet staining was indicative of lower proportions of NPCs. See circled wells in FIG. 7B. The left and right columns of the LOPAC1280™ plates from which the compounds were dispensed were empty and served as untreated controls. […] See Table 6 below listing the name and class of activity of each candidate compound identified in this screen (except chelerythrine chloride, which is listed in Table 5). ChCl was not included in the subsequent round of screening. Therefore only 40 compounds were tested further.
Using a range of different concentrations from 0.1 to 50 μM, the forty compounds in Table 6 were re-screened (secondary screen) using hESCS and NPCs. The effective dose (ED) was defined as the lowest concentration of a compound that elicited cytotoxicity during the secondary screen. […] The darker wells were indicative of the increased numbers or percentages of proliferating or growing pluripotent stem cells in the wells. In addition, these 40 compounds were screened on differentiating definitive endoderm (DE) cell cultures in 96-well plate impedance assays (described above) to determine which of these compounds were not cytotoxic to definitive endoderm cells at the lowest effective dose on either hESC or NPC. […] See “ACEA DE” column in Table 6.

[1] = system: differentiating Stage 1 cultures (definitive endoderm); assay: Secondary screen on differentiating Stage 1 cultures in 6-well trays; conditions: compounds added to differentiating Stage 1 cultures
Excerpt: The impedance assay on the hESCs using the compounds in Table 4 above gave greater than twenty (20) hits. However, the ideal candidate compound of the present invention should not only be inhibitory or cytotoxic to human pluripotent stem cells, such as hESCs or hIPSCs, but should at the same time have no effect on cell viability of differentiated or differentiating cell populations including Stage 1, 2, 3, 4 and 5 type cells cultures (definitive endoderm, foregut endoderm, posterior foregut, pancreatic endoderm and endocrine cells, respectively). […] Approximately 3×10^4 hES cells were plated per well and grown for 24 hrs in DC-HAIF defined medium (i.e. StemPro® hESC SFM medium (Life Technologies, Carlsbad, Calif.). Stage 1 or definitive endoderm differentiation was then induced by changing the medium and culturing in RPMI, 100 ng/mL Activin A, and 10 ng/mL of FGF2. […] of GSK-3 beta Inhibitor 15 (Calbiochem #361558) as added to the culture for the first 24 hours of differentiation only. 10 μM of each of the candidate compounds were added about 48 hours or 2 days after differentiation was induced (see FIGS. 3 C & D, large arrowhead), and the cells were cultured for an additional 2 days.
Secondary Screen with Selected Compounds. A secondary screen using 9 of the 10 candidate compounds in Table 5 was performed by adding the compounds to differentiating Stage 1 cultures (definitive endoderm) as described above. For the secondary screen, larger standard 6-well trays were used instead of the RT-CEAS 96-well culture plates used in primary screens employing impedance assays. Only 9 of the 10 compounds in Table 5 were tested because the 10th was not available in sufficient quantity at the time the assays were performed. In the larger, 6-well trays, 5 of the 9 compounds listed in Table 5 had no effect on viability of differentiating cells or differentiated definitive endoderm. […] This assay also confirmed that the viability of differentiating cells and differentiated definitive endoderm cells was apparently consistent regardless of the numbers of cells tested, or the size, volume, or source of the culture vessel.

[2] = system: adherent Stage 1 cell cultures of BG02; assay: Q-PCR marker gene expression, adherent Stage 1 cultures of BG02; conditions: for FOXA2 (HNF3β) expression: end of Stage 1, compared to DMSO control (FIG. 4C); for SOX17 gene expression: end of Stage 1, compared to DMSO control (FIG. 4D); for OCT4 and NANOG gene expression: end of Stage 1, compared to DMSO control (FIGS. 4A, 4B)
Excerpt: FIGS. 4A-4G are bar graphs showing the relative gene expression levels of OCT4 (FIG. 4A), NANOG (FIG. 4B), FOXA2 (FIG. 4C), SOX17 (FIG. 4D), SOX7 (FIG. 4E), PAX6 (FIG. 4F) and ZIC1 (FIG. 4G) BG02 with treatment of candidate selective cytotoxic agents from the LOPAC1280™ sublibrary (Table 4) to adherent Stage 1 cell cultures of BG02. Expression levels were normalized using the geometric mean of three housekeeping genes, GUSB, CYCG and TBP. The graphs depict fold regulation compared to the hESC sample. The large arrow heads indicate time of the drug treatment. D=DMSO (control); C=Chelerythrine Chloride; A=AG490; B=BTO-1; De=Dephostatin; S=SU6656.
Screen for Effects on Stages 1-5 Differentiation. To further determine whether these 5 candidate compounds added at Stage 1 affected other differentiated cell types (e.g. Stages 2-5: foregut endoderm, posterior foregut endoderm, pancreatic endoderm and endocrine precursor cells, respectively), hES were differentiated in the presence or absence of compounds, and RNA samples were taken at various stages for gene expression analysis by Q-PCR.
Gene expression levels were plotted relative to a DMSO treated control at the end of Stage 1 (FIG. 4), and relative to undifferentiated hESC aggregates (FIGS. 5 and 6). See “Control” in FIGS. 4, 5 & 6. […] Chelerythrine chloride, Dephostatin, SU 6656 and Tyrphostin AG 490 compounds each caused an increase in SOX17 gene expression as compared to the DMSO control, consistent with the gene expression profile for Stage 1 definitive endoderm cell cultures (FIG. 4D). However, Tyrphostin AG 490 (AG) and SU 6656 (SU) each caused a decrease in FOXA2 (HNF3β) expression as compared to the DMSO control, indicating adverse effects of these two compounds on definitive endoderm (FIG. 4C). Yet none of the compounds appeared to substantially impact expression of non-definitive endoderm markers including SOX7, PAX6 or ZIC1 (FIGS. 4 E, 4F & 4G), and were not, therefore, excluded on the basis of inducing differentiation to other cell types. […] This compound neither decreased OCT4 or NANOG expression, nor increased FOXA2 (HNF3β) or SOX17 expression, as would have been expected of a pluripotent stem cell-selective inhibitor/cytotoxic agent.

Molecule: N#C/C(=C\c1ccc(O)c(O)c1)C(=O)NCc1ccccc1 [Tyrphostin AG 490]
- minimal effective concentration (NPCs): 10 µM
- Viability of Definitive Endoderm [1]: capable of growth and proliferation; also recorded: Viable
- FOXA2 (HNF3β) expression [2]: decrease
- SOX17 gene expression [2]: increase
- OCT4 and NANOG gene expression [2]: subtle relative decrease

Molecule: CN(N=O)c1cc(O)ccc1O [Dephostatin]
- Viability of Definitive Endoderm [1]: capable of growth and proliferation; also recorded: Viable
- SOX17 gene expression [2]: increase
- OCT4 and NANOG gene expression [2]: subtle relative decrease

Molecule: CN(C)S(=O)(=O)c1ccc2c(c1)/C(=C/c1cc3c([nH]1)CCCC3)C(=O)N2 [SU 6656]
- minimal effective concentration (NPCs; Homo sapiens, 48 h): > 50 µM
- Viability of Definitive Endoderm [1]: capable of growth and proliferation; also recorded: Viable
- FOXA2 (HNF3β) expression [2]: decrease
- SOX17 gene expression [2]: increase
- OCT4 and NANOG gene expression [2]: subtle relative decrease

Molecule: 22, 23-dihydroavermectin B1a+22,23-dihydroavermectin B1b [Ivermectin]
- minimal effective concentration (NPCs): >50 µM
